We go through one compound from patent publication US20250186466A1, “ZLT-007 AND METHODS OF TREATING DIABETIC NEUROPATHY” (IIere Therapeutics LLC, priority 2022, published 2025).

Assay [1] concerns subjects with pain associated with diabetic neuropathy. The experiment in a line: 12-week clinical study, pain Visual Analog Scale (VAS). It is filed as in vivo, human. The following applies: Day 30, Day 60, Day 90. As to the method:
(§1) To determine the effect of ZLT-L-007 in subjects with pain associated with diabetic neuropathy, an observational 12-week clinical study to evaluate the efficacy, safety and tolerability of ZLT-L-007 versus Pregabalin (300 Mg/Day) was conducted.

For assay [2] the test system is unchanged. The experiment in a line: 12-week clinical study, Daily Pain Numeric Rating Scale (NRS). The class given is in vivo, human. As to the method:
as §1
Primary endpoints of the study included: 1. Recording Daily Pain Numeric Rating Scale (NRS) at Baseline, Day 30, Day 60, and Day 90.
Three groups were used to evaluate the effect of ZLT-L-007 in subjects with pain associated with diabetic neuropathy: Group 1 (Pregabalin), Group 2 (ZLT-L-007 pharmaceutical composition+terpene composition), and Group 3 (Pregabalin and ZLT-L-007 pharmaceutical composition+terpene composition). More detailed information regarding each group's treatment is provided below.
Group 3 subjects were already taking pregabalin/Lyrica® at the prescribed dose recommended by their doctor. Subjects then received one capsule by mouth twice daily of the ZLT-L-007 pharmaceutical composition. Participants were also given one capsule by mouth twice daily of a terpene composition that comprised 0.25 mg of myrcene and 0.25 mg of linalool.
Group 3 was administered one capsule by mouth twice daily of the ZLT-L-007 pharmaceutical composition.. Participants were also given one capsule by mouth twice daily of a terpene composition that comprised 0.25 mg of myrcene and 0.25 mg of linalool.

As to `CC(C)C[C@H](CN)CC(=O)O` [Pregabalin], the “VAS pain severity, median percent change from baseline, range” value in assay [1] is −33.33% to −35.00%. The “NRS Severity, median percent change from baseline” value in assay [2] (30-day follow-up, ZLT-L-007 one capsule by mouth twice daily plus terpene capsule) was −33.33%; in assay [2] (60-day follow-up), −20.00%; in assay [2] (90-day follow-up) it was −35.00%. For the same compound, the “NRS Severity, median percent change from baseline, range” value in assay [2] (all follow-up periods) was −20.00% to −35.00%.
